For this assay, the target named is T1, MST1R (RON) (Homo sapiens, UniProt Q04912).
T1 construct: purchased Thermo Fisher Scientific (Life Technologies) SelectScreen
The assay can be described thus: SelectScreen Z'LYTE. Format: biochemical. The gist of the method:
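NU5455 was profiled across the SelectScreen Broad panel of kinase activity and binding assays. Z'LYTE reactions such as CSF1R ran at apparent Km ATP, while the Adapta CAMK1 assay used ATP listed as 10. Values are given as percent.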

Molecules are shown by their SMILES.

T1 sequence (Q04912 25-1400): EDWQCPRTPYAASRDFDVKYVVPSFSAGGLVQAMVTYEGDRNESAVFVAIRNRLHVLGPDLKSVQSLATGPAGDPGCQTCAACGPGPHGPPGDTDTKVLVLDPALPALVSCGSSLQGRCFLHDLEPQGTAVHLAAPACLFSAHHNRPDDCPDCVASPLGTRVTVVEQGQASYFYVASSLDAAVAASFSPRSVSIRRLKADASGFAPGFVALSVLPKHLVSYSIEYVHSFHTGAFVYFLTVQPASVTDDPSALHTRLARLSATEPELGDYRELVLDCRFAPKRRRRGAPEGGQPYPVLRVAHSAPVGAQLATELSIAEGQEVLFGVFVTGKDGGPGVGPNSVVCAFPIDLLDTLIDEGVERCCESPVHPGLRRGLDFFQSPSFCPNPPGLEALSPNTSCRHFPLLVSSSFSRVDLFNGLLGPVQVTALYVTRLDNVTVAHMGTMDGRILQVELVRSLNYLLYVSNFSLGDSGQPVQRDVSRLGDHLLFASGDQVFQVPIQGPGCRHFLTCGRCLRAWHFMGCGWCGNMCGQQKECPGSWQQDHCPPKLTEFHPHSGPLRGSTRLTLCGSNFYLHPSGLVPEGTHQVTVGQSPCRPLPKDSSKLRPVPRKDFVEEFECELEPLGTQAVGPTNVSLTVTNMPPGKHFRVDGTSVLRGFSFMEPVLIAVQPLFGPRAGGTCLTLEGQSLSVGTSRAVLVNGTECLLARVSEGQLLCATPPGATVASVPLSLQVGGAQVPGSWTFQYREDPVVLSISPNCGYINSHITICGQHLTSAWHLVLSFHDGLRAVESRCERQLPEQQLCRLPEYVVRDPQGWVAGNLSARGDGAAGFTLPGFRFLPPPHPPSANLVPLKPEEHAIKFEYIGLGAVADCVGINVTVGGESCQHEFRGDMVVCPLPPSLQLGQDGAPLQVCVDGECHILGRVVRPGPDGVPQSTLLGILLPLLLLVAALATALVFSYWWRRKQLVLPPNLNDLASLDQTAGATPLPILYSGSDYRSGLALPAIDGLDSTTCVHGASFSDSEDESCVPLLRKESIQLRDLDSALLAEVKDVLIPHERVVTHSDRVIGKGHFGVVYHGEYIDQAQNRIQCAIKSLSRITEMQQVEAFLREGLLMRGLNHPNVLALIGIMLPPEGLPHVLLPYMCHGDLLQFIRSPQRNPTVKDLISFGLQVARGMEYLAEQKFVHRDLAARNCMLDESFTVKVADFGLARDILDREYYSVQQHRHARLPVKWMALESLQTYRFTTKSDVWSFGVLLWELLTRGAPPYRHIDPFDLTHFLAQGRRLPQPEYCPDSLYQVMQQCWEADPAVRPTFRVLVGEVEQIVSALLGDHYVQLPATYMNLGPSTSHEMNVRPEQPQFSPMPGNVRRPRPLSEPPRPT

Regarding `CN(C(=O)CN1CCOCC1)c1ccc2sc3c(-c4cccc5c(=O)cc(N6CC7CCC(C6)O7)oc45)cccc3c2c1` [NU5455], the inhibition at 1 µM is -13.4%.

A word on the inhibition: it is the drop in the measured response relative to a control, in per cent.
